These results are taken from paper PMC8519033 (Pediatric Obesity, 2021).

A short description of series [1]: Population pharmacokinetic analysis of liraglutide (one-compartment model, NONMEM FOCE-I; plasma ELISA). Type of series: in vivo, human. Particulars: for Absorption rate constant KA / Apparent volume of distribution V/F: parameter fixed. Here is the method:
As the focus of the analysis was a comparison of different age populations, age was prespecified to be included initially as a categorical variable.
In trial 4180, Tanner staging (stages 2‐5) of adolescents was assessed by site staff trained in pubertal assessments. For females, assessments of breast and pubic hair development were made. For males, assessments of testicular volume (by orchidometer), penis development and pubic hair development were made. Prepubertal patients were not permitted in the trial.
The structural model was parameterized in terms of the following parameters: • ka (absorption rate constant) • CL/F (apparent clearance) • V/F (apparent volume of distribution)
The first‐order conditional estimation with interaction (FOCE‐I) method was used for the population pharmacokinetic analysis, implemented in the non‐linear mixed effects modelling (NONMEM) software.
An analysis of the influence of covariates on exposure was carried out including all tested covariates in one step, using a confirmatory approach,[32] and disregarding any interactions between age group and sex. Model development involved estimation of a base model without covariates and a full model including all predefined covariates. If any covariates without statistically significant effect could be excluded, the reduced model would be considered the final population pharmacokinetic model. The covariates were prespecified and based on earlier findings in phase 3 trials with adults as well as prior knowledge from smaller trials in children and adolescents.
Specific steady‐state exposures for individual participants were based on the full model, including all covariates, and derived from the subject‐specific post‐hoc CL/F estimates, the maintenance dose and the dose interval (24 hours): (6) Cavg=Dose/CL/F*24hours
The CIs for full model parameters were estimated using bootstrapping. For each investigated covariate, differences were considered relevant if the 90% CI of the estimated mean of the relative exposure fell outside the standard bioequivalence limits (0.80‐1.25).
Between‐subject variability was included for CL/F and V/F, assuming log‐normal distributions […]. Furthermore, CL/F and V/F were estimated using a full variance‐covariance matrix. No between‐subject variability was included for ka. Within‐subject variability (residual) was described by a proportional error model. Standard graphical quality analyses, including goodness‐of‐fit plots (Figure S1), were made during qualification of the pharmacokinetic model.
In general terms: An ELISA detects its analyte on a solid surface through an enzyme-linked reagent.

Series [2] has as its system pubertal adolescents with obesity. Particulars: 56-week trial, liraglutide in addition to lifestyle therapy; 95% CI -0.37, -0.08; P = 0.002; cited from earlier work.
In series [3] the test system is adolescents in trial 4180. Further details: species or system human. Particulars: in vivo. Here is the method: The analyses were conducted using response data at week 20 (phase 2 trial 1807), week 50 (phase 3a trial 1922) or week 56 (phase 3a trials 4180 and 1839) to align with the original analysis in adults. The appropriateness of using different trial lengths for the historical adult trials was evaluated by graphically exploring the weight loss longitudinally. This was deemed appropriate as the maximal effect on weight reduction was reached after 20 weeks of treatment and remained stable thereafter for the trials of longer duration. […] The two age groups differed in the placebo group response, with lower mean responses in adolescents; this difference was consistent across the exposure range as well. […] However, the effect of age group on the maximal effect in the model (Emax) was not significant in these analyses. […] Approximately 64% of the adolescents in the exposure‐response analysis grew more than 0.5 cm during the trial. Of these, some received liraglutide and some received placebo.

[4] abbreviates: base pharmacokinetic model without covariates.

Consider `CCCCCCCCCCCCCCCC(=O)N[C@@H](CCC(=O)NCCCC[C@H](NC(=O)[C@H](C)NC(=O)[C@H](C)NC(=O)[C@H](CCC(N)=O)NC(=O)CNC(=O)[C@H](CCC(=O)O)NC(=O)[C@H](CC(C)C)NC(=O)[C@H](Cc1ccc(O)cc1)NC(=O)[C@H](CO)NC(=O)[C@H](CO)NC(=O)[C@@H](NC(=O)[C@H](CC(=O)O)NC(=O)[C@H](CO)NC(=O)[C@@H](NC(=O)[C@H](Cc1ccccc1)NC(=O)[C@@H](NC(=O)CNC(=O)[C@H](CCC(=O)O)NC(=O)[C@H](C)NC(=O)[C@@H](N)Cc1cnc[nH]1)[C@@H](C)O)[C@@H](C)O)C(C)C)C(=O)N[C@@H](CCC(=O)O)C(=O)N[C@@H](Cc1ccccc1)C(=O)N[C@H](C(=O)N[C@@H](C)C(=O)N[C@@H](Cc1c[nH]c2ccccc12)C(=O)N[C@@H](CC(C)C)C(=O)N[C@H](C(=O)N[C@@H](CCCNC(=N)N)C(=O)NCC(=O)N[C@@H](CCCNC(=N)N)C(=O)NCC(=O)O)C(C)C)[C@@H](C)CC)C(=O)O` [liraglutide], for which the “Absorption rate constant KA” value in series [1] (setting [4]) was determined as 0.0804 h⁻¹; in series [1] (final (full covariate) pharmacokinetic model, trials 4180, 3967, 3630, 4181, children, adolescents and adults with obesity, N = 176) it was 0.0813 h⁻¹. The “Apparent volume of distribution V/F” value came out at 13.1 L in series [1] (setting [4]) and 13.8 L in series [1] (final pharmacokinetic model, reference subject adult female, 100 kg). The “Body weight exponent on V/F (V-BW)” value in series [1] (final pharmacokinetic model) came to 0.587. For the same molecule, the “BMI standard-deviation score (SDS), estimated treatment difference compared with placebo” value in series [2] is listed as −0.22. For the same molecule, in series [3], the “Average growth (height) during the trial” value is 1.4 cm.
